Assay results published in patent publication US11299712B2, “Method for inducing differentiation of alveolar epithelial cells” (KYOTO UNIVERSITY, priority 2015, dated 2022).

Tested on: type II alveolar epithelial cells
Test: Three-dimensional subculture of type II alveolar epithelial cells (AT2-P0 to AT2-P1) in medium for Step 5 with additives, SFTPC-GFP reporter cells
Format: cell-based, human
Settings: for percentage of type II alveolar epithelial cells maintained of the whole including fibroblasts used for coculture / percentage of type II alveolar epithelial cells maintained relative to the epithelial cell component: AT2-P1, medium for Step 5 plus additive (300 ng/ml WIF, 100 ng/ml IGF2, 10 ng/ml EGF, 20 ng/ml NRG1 β, 3 μM CHIR99021); for percentage of type II alveolar epithelial cells maintained of the whole including fibroblasts used for coculture: control 9.4%; for percentage of type II alveolar epithelial cells maintained relative to the epithelial cell component: control 48.4%; for maintenance of type II alveolar epithelial cells compared with medium supplemented with EGF, NRG1β, CHIR99021: WIF1 300 ng/ml or IGF2 100 ng/ml vs EGF 10 ng/ml, NRG1β 20 ng/ml, CHIR99021 3 μM; for maintenance of type II alveolar epithelial cells in subculture (FIG. 17): medium for Step 5 supplemented with WIF1 (300 ng/ml) or IGF2 (100 ng/ml)
Description: On Day 35 of type II alveolar epithelial cell induction in Example 1 (i.e., upon completion of Step 5), the cell mass composed of fibroblasts and spheroids subjected to three-dimensional coculture was removed from the Cell Culture Inserts. The removed cell mass was cut into small pieces of approximately 1 mm with the use of a clean surgical knife, the cells were recovered with the addition of PBS, and centrifugation was carried out at 900 rpm for 5 minutes to remove the supernatant. 0.1% Trypsin/EDTA was added to the precipitate and incubation was then carried out at 37° C. for 15 minutes while adequately repeating pipetting.
Subsequently, DMEM supplemented with 2% FBS was added to neutralize trypsin, followed by centrifugation at 4° C. and 900 rpm for 7 minutes. The supernatant was suction-removed, 1% BSA/PBS was added to the remaining cell pellet, and the resultant was centrifuged again at 4° C. and 900 rpm for 5 minutes. The cell pellet was suspended in 1% BSA/PBS, the mouse anti-human Ep-CAM antibody (Santa Cruz) was added thereto, and the reaction was allowed to proceed at 4° C. for 20 minutes.
Subsequently, the cells were washed 2 times with 1% BSA/PBS, the ALEXA FLUOR® 647-labeled anti-mouse antibody (Life Technologies) was added thereto, and the reaction was allowed to proceed at 4° C. for 20 minutes. After the reaction product was washed 2 times with 1% BSA/PBS, propidium iodide was added in the end, and SFTPC-GFP-positive cells were isolated via FACS with the use of BD FACSAria® II or Aria® III (BD Biosciences). The isolated cells were used as the type II alveolar epithelial cells (AT2-P0).
When type II alveolar epithelial cells were to be subcultured, the type II alveolar epithelial cells were mixed with human fetal lung fibroblasts immediately after isolation, or cryopreserved type II alveolar epithelial cells were mixed with human fetal lung fibroblasts at a ratio of 1:50, the cell suspension of the medium for Step 5 comprising the cells at a cell density of 2.5×10^6 cells/ml and Y-27632 at the final concentration of 10 μM was mixed with MATRIGEL® (Corning) at a ratio of 1:1 at a low temperature, the resultant was immediately added to the upper layer of the Cell Culture Inserts, and the medium for Step 5 was added to the lower layer. The amount to be added to the upper layer of the 12-well plate Cell Culture Inserts is preferably 200 to 400 μL and the amount to be added to the lower layer thereof is preferably 1 ml.
On the first 2 days after the subculture, Y-27632 was added to the medium for Step 5 to the final concentration of 10 μM. Thereafter, the medium for Step 5 of the lower layer was selectively exchanged with another medium every other day. The type II alveolar epithelial cells were isolated 14 days after the initiation of culture, and culture was continued by repeating the three-dimensional coculture with the human fetal lung fibroblasts. As a subculture goes on to the following generation, the cells were designated as AT2-P1, AT2-P2. . . .

Compound: Cc1c[nH]c(-c2cnc(NCCNc3ccc(C#N)cn3)nc2-c2ccc(Cl)cc2Cl)n1 [CHIR99021, 6-[2-[4-(2,4-dichlorophenyl)-5-(4-methyl-1H-imidazol-2-yl)pyrimidin-2-ylamino]-ethylamino]pyridine-3-carbonitrile, reference compound]
- percentage of type II alveolar epithelial cells maintained of the whole including fibroblasts used for coculture: 0.5%
- percentage of type II alveolar epithelial cells maintained relative to the epithelial cell component: 23.8%

Compound: EGF: EGF (Wako), medium additive
- percentage of type II alveolar epithelial cells maintained of the whole including fibroblasts used for coculture: 1.2%
- percentage of type II alveolar epithelial cells maintained relative to the epithelial cell component: 5.3%

Compound: IGF2: protein encoded by the polynucleotide shown in NCBI Accession Number NM_000612 (R&D Systems)
- percentage of type II alveolar epithelial cells maintained of the whole including fibroblasts used for coculture: 16.6%
- percentage of type II alveolar epithelial cells maintained relative to the epithelial cell component: 58.0%
- maintenance of type II alveolar epithelial cells compared with medium supplemented with EGF, NRG1β, CHIR99021: maintained with higher efficiency
- maintenance of type II alveolar epithelial cells in subculture (FIG. 17): efficiently maintained

Compound: WIF1: WNT signal inhibitor; protein encoded by the polynucleotide shown in NCBI Accession Number NM_007191 (R&D Systems)
- percentage of type II alveolar epithelial cells maintained of the whole including fibroblasts used for coculture: 20.2%
- percentage of type II alveolar epithelial cells maintained relative to the epithelial cell component: 54.4%
- maintenance of type II alveolar epithelial cells compared with medium supplemented with EGF, NRG1β, CHIR99021: maintained with higher efficiency
- maintenance of type II alveolar epithelial cells in subculture (FIG. 17): efficiently maintained
